# According to patent US12263155B2, “Combinations of monoamine oxidase inhibitors and serotonin receptor agonists and their therapeutic use” (Remedi, Inc., priority 2022, dated 2025):
# Columns and labels:
# [1] = Exemplary administration of CX157, DMT and combinations: subjective effects; type: in vivo; settings: 175 mg CX157 alone
# Protocol: Administration Example 1: Subjects are administered 175 mg CX157 alone.
# Administration Example 2: Subjects are administered 25 mg, 37.5 mg, 50 mg, 75 mg, or 100 mg DMT freebase in a capsule.
# Administration Example 3: Subjects are administered 175 mg CX157, and then from between 2-3 hours later, such as at 2 hours 40 minutes later, a dose of 0.03 mg/kg, 0.05 mg/kg, or 0.07 mg/kg DMT freebase in capsule. Alternatively, subjects are administered a capsule containing 2.5 mg, 3.75 mg, 5 mg, 7.5 mg, 10 mg, 12.5 mg, 15 mg, 17.5 mg, or 20 mg DMT freebase.
# Administration Example 4: Subjects are administered 175 mg CX157, and then from between 2-3 hours later, such as at 2 hours 15 minutes later, a dose of 0.2 mg/kg, 0.4 mg/kg, or 0.6 mg/kg DMT freebase in capsule. Alternatively, subjects are administered a capsule containing 25 mg, 37.5 mg, 50 mg, 75 mg, 100 mg, 125 mg, 150 mg, 175 mg, or 200 mg DMT freebase. At lower doses of DMT, subjects report effects that are relaxing, comforting, and “warm,” and describe mildly mood-elevating and anxiolytic properties. […]
# [2] = Plasma and brain CX157 concentrations after oral dosing in rats; settings: rat; for Kp at 2 h / Kp at 4 h / Kp at 8 h / Kp at 18 h / Kp at 24 h / concentration at 0 h / concentration at 2 h / concentration at 4 h / concentration at 8 h / concentration at 18 h / concentration at 24 h: male, Sprague-Dawley, po
# MAO-A = target: T1, MAO-A (Homo sapiens, UniProt P21397); assay: Phase I 14-day twice-daily pharmacodynamics; type: in vivo; parameters: administered for 14 days compared to placebo in healthy male and female volunteers; from tissue; host or cells: in vivo, healthy volunteers; settings: repeated administration 10, 20, 40 mg twice daily
# T1 sequence (P21397 1-527): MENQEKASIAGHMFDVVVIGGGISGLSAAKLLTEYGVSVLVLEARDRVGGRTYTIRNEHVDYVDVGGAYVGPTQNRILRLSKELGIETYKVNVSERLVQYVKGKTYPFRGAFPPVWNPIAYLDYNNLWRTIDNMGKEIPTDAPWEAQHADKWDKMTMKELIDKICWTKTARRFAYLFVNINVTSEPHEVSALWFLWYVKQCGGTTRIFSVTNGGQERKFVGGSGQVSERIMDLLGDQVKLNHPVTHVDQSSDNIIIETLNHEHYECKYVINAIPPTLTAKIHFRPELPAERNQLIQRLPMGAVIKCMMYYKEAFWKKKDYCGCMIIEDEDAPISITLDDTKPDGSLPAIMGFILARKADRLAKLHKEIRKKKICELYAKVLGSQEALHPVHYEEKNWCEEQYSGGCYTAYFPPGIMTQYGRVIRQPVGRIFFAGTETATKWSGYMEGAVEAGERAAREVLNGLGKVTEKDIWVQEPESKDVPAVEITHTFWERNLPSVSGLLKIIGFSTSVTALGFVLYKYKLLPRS
# Protocol: Methods: The study was a Phase I, single-center, randomized, parallel-group, multiple-dose, placebo-controlled, pharmacodynamic, pharmacokinetic and safety study in healthy volunteers. To obtain 24 enrolled subjects, screening procedures and inclusion/exclusion criteria were evaluated for 54 subjects during a variable screening period of up to 28 days.
# [3] = brain and plasma, 5 mg/kg, mean brain/plasma ratio of CX157 concentrations, 5 mg/kg oral
# [4] = brain and plasma, 10 mg/kg, mean brain/plasma ratio of CX157 concentrations, 10 mg/kg oral
# [5] = brain/plasma, 1 mg/kg, mean brain/plasma ratio of CX157 concentrations, 1 mg/kg oral
smiles,measurement,setting,value
"O=S1(=O)c2ccc(F)cc2Oc2cc(OCC(F)(F)F)ccc21 [CX157, 3-fluoro-7(2,2,2-trifluorethoxy)phenoxathiine-10,10-dioxide]",antidepressant activity,[1],no significant antidepressant activity
same,Kp at 2 h,[2]; [3],2.5
same,Kp at 4 h,"[2]; brain and plasma, 5 mg/kg, mean brain/plasma ratio of CX157 concentrations, 5 mg/kg oral, 4 h",2.2
same,Kp at 8 h,[2]; [3],5
same,Kp at 18 h,[2]; [3],3.7
same,Kp at 24 h,[2]; [3],7.4
same,Kp at 2 h,[2]; [4],3.1
same,Kp at 4 h,"[2]; brain and plasma, 10 mg/kg, mean brain/plasma ratio of CX157 concentrations, 10 mg/kg oral, 4 h",1.9
same,Kp at 8 h,[2]; [4],2.2
same,Kp at 18 h,[2]; [4],7.2
same,Kp at 24 h,[2]; [4],8.5
same,concentration at 0 h,"[2]; brain, 1 mg/kg",0 ng/mL
same,concentration at 2 h,"[2]; brain, 1 mg/kg",103 ng/mL
same,concentration at 4 h,"[2]; brain, 1 mg/kg",71.7 ng/mL
same,concentration at 8 h,"[2]; brain, 1 mg/kg",76.5 ng/mL
same,concentration at 18 h,"[2]; brain, 1 mg/kg",17.3 ng/mL
same,concentration at 24 h,"[2]; brain, 1 mg/kg",13.2 ng/mL
same,concentration at 0 h,"[2]; brain, 5 mg/kg",0 ng/mL
same,concentration at 2 h,"[2]; brain, 5 mg/kg",447 ng/mL
same,concentration at 4 h,"[2]; brain, 5 mg/kg",386 ng/mL
same,concentration at 8 h,"[2]; brain, 5 mg/kg",535 ng/mL
same,concentration at 18 h,"[2]; brain, 5 mg/kg",140 ng/mL
same,concentration at 24 h,"[2]; brain, 5 mg/kg",85.8 ng/mL
same,concentration at 0 h,"[2]; brain, 10 mg/kg",0 ng/mL
same,concentration at 2 h,"[2]; brain, 10 mg/kg",387 ng/mL
same,concentration at 4 h,"[2]; brain, 10 mg/kg",513 ng/mL
same,concentration at 8 h,"[2]; brain, 10 mg/kg",540 ng/mL
same,concentration at 18 h,"[2]; brain, 10 mg/kg",56.6 ng/mL
same,concentration at 24 h,"[2]; brain, 10 mg/kg",86.6 ng/mL
same,Kp at 4 h,"[2]; brain/plasma, 1 mg/kg, brain concentration higher than plasma concentration, e.g. 4 hours after a 1 mg/kg oral dose",≤ 10
same,Kp at 2 h,[2]; [5],7.4
same,Kp at 4 h,"[2]; brain/plasma, 1 mg/kg, mean brain/plasma ratio of CX157 concentrations, 1 mg/kg oral, 4 h",10.3
same,Kp at 8 h,[2]; [5],6.5
same,Kp at 18 h,[2]; [5],5.7
same,Kp at 24 h,[2]; [5],4.8
same,concentration at 0 h,"[2]; plasma, 1 mg/kg",0 ng/mL
same,concentration at 2 h,"[2]; plasma, 1 mg/kg",20 ng/mL
same,concentration at 4 h,"[2]; plasma, 1 mg/kg",9.9 ng/mL
same,concentration at 8 h,"[2]; plasma, 1 mg/kg",13.4 ng/mL
same,concentration at 18 h,"[2]; plasma, 1 mg/kg",4.5 ng/mL
same,concentration at 24 h,"[2]; plasma, 1 mg/kg",3.2 ng/mL
same,concentration at 0 h,"[2]; plasma, 5 mg/kg",0 ng/mL
same,concentration at 2 h,"[2]; plasma, 5 mg/kg",184 ng/mL
same,concentration at 4 h,"[2]; plasma, 5 mg/kg",214 ng/mL
same,concentration at 8 h,"[2]; plasma, 5 mg/kg",189 ng/mL
same,concentration at 18 h,"[2]; plasma, 5 mg/kg",26.8 ng/mL
same,concentration at 24 h,"[2]; plasma, 5 mg/kg",14.3 ng/mL
same,concentration at 0 h,"[2]; plasma, 10 mg/kg",0 ng/mL
same,concentration at 2 h,"[2]; plasma, 10 mg/kg",158 ng/mL
same,concentration at 4 h,"[2]; plasma, 10 mg/kg",412 ng/mL
same,concentration at 8 h,"[2]; plasma, 10 mg/kg",257 ng/mL
same,concentration at 18 h,"[2]; plasma, 10 mg/kg",8.5 ng/mL
same,concentration at 24 h,"[2]; plasma, 10 mg/kg",5.4 ng/mL
same,blood-brain-barrier penetration,[2]; oral,penetrated the blood-brain-barrier
same,time of maximum plasma levels,"[2]; oral 1, 5, 10 mg/kg",two to four hours
same,pharmacokinetic half-life in brain versus plasma,"[2]; oral, particularly 10 mg/kg",longer pharmacokinetic half-life in the brain than in plasma
same,pharmacodynamic activity: MAO-A activity,MAO-A,inhibits MAO-A activity
